Experimental data taken from PMC4411097, “Pachymic Acid Inhibits Growth and Induces Apoptosis of Pancreatic Cancer In Vitro and In Vivo by Targeting ER Stress” (PLoS ONE, 2015).

Tested on: MIA PaCa-2 cells
Assay: DNA microarray analysis (Affymetrix Human PrimeView);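 for Mean (MiaPaca-2 * PA): Log2-transformed RMA normalized probe set signal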
Type: cell-based
[1] = gene ATF3, probeset 11753632_x_at
[2] = gene C3orf52, probeset 11724431_at
[3] = gene C3orf59, probeset 11722936_at
[4] = gene C17orf91, probeset 11740895_a_at
[5] = gene C17orf91, probeset 11740896_s_at
[6] = gene CASP1, probeset 11750553_x_at
[7] = gene CCNE2, probeset 11728301_a_at
[8] = gene CD83, probeset 11743000_at
[9] = gene CDCP1, probeset 11732062_a_at
[10] = gene CDKN1A, probeset 11715387_at
[11] = gene CEBPG, probeset 11717693_at
[12] = gene CTGF, probeset 11715440_a_at
[13] = gene CTPS, probeset 11747890_a_at
[14] = gene CTSC, probeset 11731465_a_at
[15] = gene DDIT3, probeset 11758198_s_at
[16] = gene DNAJB1, probeset 11715445_a_at
[17] = gene DNAJB1, probeset 11715446_a_at
[18] = gene EGR1, probeset 11717862_x_at
[19] = gene EGR1, probeset 11754334_s_at
[20] = gene EGR3, probeset 11736342_at
[21] = gene EIF4A2, probeset 11760707_a_at
[22] = gene EIF4A2, probeset 11760708_at
[23] = gene FOS, probeset 11734659_a_at
[24] = gene FOSL1, probeset 11760574_x_at
[25] = gene HKDC1, probeset 11722519_at
[26] = gene HKDC1, probeset 11722521_at

C=C(CC[C@@H](C(=O)O)[C@H]1[C@H](O)C[C@@]2(C)C3=C(CC[C@]12C)[C@@]1(C)CC[C@H](OC(C)=O)C(C)(C)[C@@H]1CC3)C(C)C [PA, Pachymic acid]
Fold-Change (MiaPaca-2 * PA vs. MiaPaca-2 * control) (gene AEN, probeset 11754296_a_at, MiaPaca-2): 1.50
Mean (MiaPaca-2 * PA) (gene AEN, probeset 11754296_a_at, MiaPaca-2, PA-treated): 8.26
Fold-Change (MiaPaca-2 * PA vs. MiaPaca-2 * control) [1]: 1.60
Mean (MiaPaca-2 * PA) [1]: 5.51
Fold-Change (MiaPaca-2 * PA vs. MiaPaca-2 * control) [2]: 1.60
Mean (MiaPaca-2 * PA) [2]: 7.34
Fold-Change (MiaPaca-2 * PA vs. MiaPaca-2 * control) [3]: 1.55
Mean (MiaPaca-2 * PA) [3]: 8.02
Fold-Change (MiaPaca-2 * PA vs. MiaPaca-2 * control) (gene C6orf145, probeset 11754483_a_at, MiaPaca-2): 1.51
Mean (MiaPaca-2 * PA) (gene C6orf145, probeset 11754483_a_at, MiaPaca-2, PA-treated): 7.32
Fold-Change (MiaPaca-2 * PA vs. MiaPaca-2 * control) [4]: 1.61
Mean (MiaPaca-2 * PA) [4]: 7.42
Fold-Change (MiaPaca-2 * PA vs. MiaPaca-2 * control) [5]: 1.67
Mean (MiaPaca-2 * PA) [5]: 7.56
Fold-Change (MiaPaca-2 * PA vs. MiaPaca-2 * control) (gene CAMTA1, probeset 11723154_s_at, MiaPaca-2): 1.52
Mean (MiaPaca-2 * PA) (gene CAMTA1, probeset 11723154_s_at, MiaPaca-2, PA-treated): 6.50
Fold-Change (MiaPaca-2 * PA vs. MiaPaca-2 * control) (gene CAPRIN2, probeset 11749098_a_at, MiaPaca-2): 1.50
Mean (MiaPaca-2 * PA) (gene CAPRIN2, probeset 11749098_a_at, MiaPaca-2, PA-treated): 8.43
Fold-Change (MiaPaca-2 * PA vs. MiaPaca-2 * control) (gene CASP1, probeset 11738884_x_at, MiaPaca-2): 1.53
Mean (MiaPaca-2 * PA) (gene CASP1, probeset 11738884_x_at, MiaPaca-2, PA-treated): 7.07
Fold-Change (MiaPaca-2 * PA vs. MiaPaca-2 * control) [6]: 1.55
Mean (MiaPaca-2 * PA) [6]: 7.39
Fold-Change (MiaPaca-2 * PA vs. MiaPaca-2 * control) [7]: 1.56
Mean (MiaPaca-2 * PA) [7]: 6.40
Fold-Change (MiaPaca-2 * PA vs. MiaPaca-2 * control) [8]: 1.58
Mean (MiaPaca-2 * PA) [8]: 7.70
Fold-Change (MiaPaca-2 * PA vs. MiaPaca-2 * control) (gene CDC25A, probeset 11726757_s_at, MiaPaca-2): 1.51
Mean (MiaPaca-2 * PA) (gene CDC25A, probeset 11726757_s_at, MiaPaca-2, PA-treated): 7.92
Fold-Change (MiaPaca-2 * PA vs. MiaPaca-2 * control) [9]: 1.58
Mean (MiaPaca-2 * PA) [9]: 6.86
Fold-Change (MiaPaca-2 * PA vs. MiaPaca-2 * control) [10]: 1.56
Mean (MiaPaca-2 * PA) [10]: 6.94
Fold-Change (MiaPaca-2 * PA vs. MiaPaca-2 * control) [11]: 1.57
Mean (MiaPaca-2 * PA) [11]: 9.81
Fold-Change (MiaPaca-2 * PA vs. MiaPaca-2 * control) (gene CEBPG, probeset 11717694_a_at, MiaPaca-2): 1.51
Mean (MiaPaca-2 * PA) (gene CEBPG, probeset 11717694_a_at, MiaPaca-2, PA-treated): 8.37
Fold-Change (MiaPaca-2 * PA vs. MiaPaca-2 * control) (gene CIDEB, probeset 11752838_s_at, MiaPaca-2): 1.52
Mean (MiaPaca-2 * PA) (gene CIDEB, probeset 11752838_s_at, MiaPaca-2, PA-treated): 5.52
Fold-Change (MiaPaca-2 * PA vs. MiaPaca-2 * control) [12]: 1.65
Mean (MiaPaca-2 * PA) [12]: 5.48
Fold-Change (MiaPaca-2 * PA vs. MiaPaca-2 * control) [13]: 1.56
Mean (MiaPaca-2 * PA) [13]: 7.43
Fold-Change (MiaPaca-2 * PA vs. MiaPaca-2 * control) [14]: 1.61
Mean (MiaPaca-2 * PA) [14]: 7.37
Fold-Change (MiaPaca-2 * PA vs. MiaPaca-2 * control) [15]: 1.54
Mean (MiaPaca-2 * PA) [15]: 6.68
Fold-Change (MiaPaca-2 * PA vs. MiaPaca-2 * control) [16]: 1.59
Mean (MiaPaca-2 * PA) [16]: 10.46
Fold-Change (MiaPaca-2 * PA vs. MiaPaca-2 * control) [17]: 1.56
Mean (MiaPaca-2 * PA) [17]: 11.54
Fold-Change (MiaPaca-2 * PA vs. MiaPaca-2 * control) (gene DUSP2, probeset 11721695_s_at, MiaPaca-2): 1.51
Mean (MiaPaca-2 * PA) (gene DUSP2, probeset 11721695_s_at, MiaPaca-2, PA-treated): 7.47
Fold-Change (MiaPaca-2 * PA vs. MiaPaca-2 * control) (gene DUSP5, probeset 11717863_a_at, MiaPaca-2): 1.52
Mean (MiaPaca-2 * PA) (gene DUSP5, probeset 11717863_a_at, MiaPaca-2, PA-treated): 7.89
Fold-Change (MiaPaca-2 * PA vs. MiaPaca-2 * control) (gene DUSP6, probeset 11741980_a_at, MiaPaca-2): 1.53
Mean (MiaPaca-2 * PA) (gene DUSP6, probeset 11741980_a_at, MiaPaca-2, PA-treated): 10.54
Fold-Change (MiaPaca-2 * PA vs. MiaPaca-2 * control) [18]: 1.65
Mean (MiaPaca-2 * PA) [18]: 7.37
Fold-Change (MiaPaca-2 * PA vs. MiaPaca-2 * control) [19]: 1.60
Mean (MiaPaca-2 * PA) [19]: 10.76
Fold-Change (MiaPaca-2 * PA vs. MiaPaca-2 * control) [20]: 1.55
Mean (MiaPaca-2 * PA) [20]: 6.51
Fold-Change (MiaPaca-2 * PA vs. MiaPaca-2 * control) [21]: 1.61
Mean (MiaPaca-2 * PA) [21]: 10.11
Fold-Change (MiaPaca-2 * PA vs. MiaPaca-2 * control) [22]: 1.66
Mean (MiaPaca-2 * PA) [22]: 7.82
Fold-Change (MiaPaca-2 * PA vs. MiaPaca-2 * control) (gene EIF4A2 /// SNORA4, probeset 11757137_s_at, MiaPaca-2): 1.51
Mean (MiaPaca-2 * PA) (gene EIF4A2 /// SNORA4, probeset 11757137_s_at, MiaPaca-2, PA-treated): 5.63
Fold-Change (MiaPaca-2 * PA vs. MiaPaca-2 * control) (gene EREG, probeset 11763822_at, MiaPaca-2): 1.52
Mean (MiaPaca-2 * PA) (gene EREG, probeset 11763822_at, MiaPaca-2, PA-treated): 6.66
Fold-Change (MiaPaca-2 * PA vs. MiaPaca-2 * control) (gene FLJ36031, probeset 11739442_s_at, MiaPaca-2): 1.53
Mean (MiaPaca-2 * PA) (gene FLJ36031, probeset 11739442_s_at, MiaPaca-2, PA-treated): 8.29
Fold-Change (MiaPaca-2 * PA vs. MiaPaca-2 * control) [23]: 1.61
Mean (MiaPaca-2 * PA) [23]: 7.33
Fold-Change (MiaPaca-2 * PA vs. MiaPaca-2 * control) (gene FOSL1, probeset 11724479_x_at, MiaPaca-2): 1.52
Mean (MiaPaca-2 * PA) (gene FOSL1, probeset 11724479_x_at, MiaPaca-2, PA-treated): 6.50
Fold-Change (MiaPaca-2 * PA vs. MiaPaca-2 * control) [24]: 1.56
Mean (MiaPaca-2 * PA) [24]: 8.39
Fold-Change (MiaPaca-2 * PA vs. MiaPaca-2 * control) (gene GBP1, probeset 11726328_x_at, MiaPaca-2): 1.50
Mean (MiaPaca-2 * PA) (gene GBP1, probeset 11726328_x_at, MiaPaca-2, PA-treated): 5.03
Fold-Change (MiaPaca-2 * PA vs. MiaPaca-2 * control) (gene HERPUD1, probeset 11741510_a_at, MiaPaca-2): 1.50
Mean (MiaPaca-2 * PA) (gene HERPUD1, probeset 11741510_a_at, MiaPaca-2, PA-treated): 9.22
Fold-Change (MiaPaca-2 * PA vs. MiaPaca-2 * control) [25]: 1.60
Mean (MiaPaca-2 * PA) [25]: 8.79
Fold-Change (MiaPaca-2 * PA vs. MiaPaca-2 * control) [26]: 1.59
Mean (MiaPaca-2 * PA) [26]: 6.86
Fold-Change (MiaPaca-2 * PA vs. MiaPaca-2 * control) (gene HMOX1, probeset 11753446_x_at, MiaPaca-2): 1.50
Mean (MiaPaca-2 * PA) (gene HMOX1, probeset 11753446_x_at, MiaPaca-2, PA-treated): 6.67
